“Also recorded” adds a separate entry of the source. Where two headings read alike, the source gives them in different places.
Tests used:
HCT116 cells [1] = experiment: Cell proliferation assay (MTT), HCT116; details: for IC50: Homo sapiens, HCT-116, 72 h, read-out: IC50 HCT116; for selective index (SI) HCT116: versus Detroit 551
Protocol: (§2) Serial dilutions of indicated compounds were added and incubated for additional 72 h. At the end of the incubation, cell viability was determined by the 3-(4,5-dimethylthiazol-2-yl)-2,5-diphenyl tetrazolium bromide (MTT) assay. The MTT formazan crystals formed were dissolved in DMSO, and the absorbance at 570 nm was recorded using a microplate spectrophotometer (Thermo Fisher Scientific, Waltham, MA, USA) [46].

NCI-H460 cells = experiment: Cell proliferation assay (MTT), NCI-H460; details: for IC50: Homo sapiens, NCI-H460, 72 h, read-out: IC50 NCI-H460; for selective index (SI) NCI-H460: versus Detroit 551
Protocol: as §2

Detroit 551 cells [2] = experiment: Cell proliferation assay (MTT), normal fibroblast Detroit 551; details: Homo sapiens, Detroit 551, 72 h, read-out: IC50 Detroit 551
Protocol: as §2

786-O cells = experiment: Cell proliferation assay (MTT), 786-O; details: for IC50: Homo sapiens, 786-0, 72 h, read-out: IC50 786-O; for selective index (SI) 786-O: versus Detroit 551
Protocol: as §2

VEGFR-2 = VEGFR-2 (Homo sapiens, UniProt P35968); experiment: In-vitro kinase assay (HotSpot, 33P), VEGFR-2; details: for inhibition at 0.08 µM: read-out: % inhibition of VEGFR-2 at 80 nM; for % inhibition of VEGFR-2 at 80 nM: 80 nM compound, ATP 10.0 μM
Chain of VEGFR-2 (P35968 20-1356): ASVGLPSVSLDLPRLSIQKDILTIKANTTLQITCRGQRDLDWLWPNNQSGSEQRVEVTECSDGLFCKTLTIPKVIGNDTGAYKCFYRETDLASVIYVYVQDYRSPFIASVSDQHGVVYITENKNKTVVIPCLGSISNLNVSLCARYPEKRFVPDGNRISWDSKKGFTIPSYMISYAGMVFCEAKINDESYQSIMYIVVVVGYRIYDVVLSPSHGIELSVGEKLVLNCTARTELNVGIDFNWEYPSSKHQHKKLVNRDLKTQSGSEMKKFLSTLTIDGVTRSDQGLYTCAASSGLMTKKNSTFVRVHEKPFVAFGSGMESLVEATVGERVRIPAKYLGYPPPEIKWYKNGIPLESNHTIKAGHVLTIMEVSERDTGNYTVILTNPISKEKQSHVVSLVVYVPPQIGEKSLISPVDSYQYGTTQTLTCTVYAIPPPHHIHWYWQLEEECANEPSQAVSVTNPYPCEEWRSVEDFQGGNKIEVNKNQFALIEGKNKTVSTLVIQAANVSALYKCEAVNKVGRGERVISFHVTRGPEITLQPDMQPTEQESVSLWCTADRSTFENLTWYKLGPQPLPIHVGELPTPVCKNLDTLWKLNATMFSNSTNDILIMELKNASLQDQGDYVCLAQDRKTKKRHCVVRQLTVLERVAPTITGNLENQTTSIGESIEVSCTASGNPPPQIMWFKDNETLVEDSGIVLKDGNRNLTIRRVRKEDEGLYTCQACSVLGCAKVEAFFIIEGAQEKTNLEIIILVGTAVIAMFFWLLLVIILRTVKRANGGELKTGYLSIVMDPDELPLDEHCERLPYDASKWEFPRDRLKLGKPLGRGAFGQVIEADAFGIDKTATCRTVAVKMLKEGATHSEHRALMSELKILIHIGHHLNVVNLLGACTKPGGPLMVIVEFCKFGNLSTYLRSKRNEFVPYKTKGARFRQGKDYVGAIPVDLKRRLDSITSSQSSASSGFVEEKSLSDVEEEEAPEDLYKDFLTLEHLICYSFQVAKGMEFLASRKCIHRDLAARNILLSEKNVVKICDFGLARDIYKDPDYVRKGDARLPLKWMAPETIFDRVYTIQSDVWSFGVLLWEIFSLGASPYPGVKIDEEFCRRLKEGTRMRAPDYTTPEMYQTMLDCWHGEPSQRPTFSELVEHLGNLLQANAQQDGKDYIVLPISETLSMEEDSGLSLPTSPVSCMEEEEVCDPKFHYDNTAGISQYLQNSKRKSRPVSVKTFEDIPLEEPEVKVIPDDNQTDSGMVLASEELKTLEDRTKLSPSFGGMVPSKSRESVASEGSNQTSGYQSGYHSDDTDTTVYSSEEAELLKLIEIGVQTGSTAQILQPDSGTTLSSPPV
Protocol: Next, the VEGFR-2 phosphorylation inhibitory activities of the newly synthesized compounds were evaluated.
(§3) Briefly, specific kinase and substrate and required cofactors were prepared in reaction buffer. Test compounds were added to the reaction and after 20 min a mixture of ATP (Sigma, St. Louis MO, USA) and ^33P ATP (Perkin Elmer, Waltham MA, USA) was added to make a final concentration of 10.0 μM. Reactions were stood at room temperature for 120 min, and then the reactions were spotted onto a P81 ion exchange filter paper (Whatman Inc., Piscataway, NJ, USA). Unbound phosphate was removed by extensive washing of filters in 0.1% phosphoric acid. Kinase activity data was reported as the percent remaining kinase activity in test compounds compared to the solvent control dimethyl sulfoxide (DMSO).

HCT116 cells [3] = experiment: Cell cycle analysis by image cytometry (DAPI); details: 24 h, preliminary
Protocol: Cell cycle profiles of HCT116 cells were determined with an NC-3000 image cytometer (ChemoMetec, Allerod, Denmark) in accordance with manufacturer’s protocol. Briefly, cells were seeded at 200,000 cells/well on a 6-well plate for 24 h. […] After incubation for 24 h, 100,000 cells were harvested and centrifuged at 400 g at room temperature for 5 min, washed once with PBS (50 μM), and resuspended in lysis buffer (50 μl) (ChemoMetec, Allerod, Denmark) containing 10 μg/ml of 2-(4-amidinophenyl)-1H-indole-6-carboxamidine (DAPI, ChemoMetec, Allerod, Denmark). […] The cellular fluorescence was measured with an NC-3000 image cytometer using NC-SlideA8 (ChemoMetec, Allerod, Denmark). The NC-3000 software (ChemoMetec, Allerod, Denmark) was used for image acquisition, image analysis and quantification, and data visualization.

HUVEC cells = experiment: In-vitro VEGF-induced Matrigel tube formation assay; assay type: cell-based, human; details: for IC50: Homo sapiens, HUVEC, VEGF 10 ng/ml, Matrigel, 6 h, read-out: IC50 Area (in vitro tube formation); for potency in inhibiting in vitro tube formation relative to sunitinib in terms of IC50: versus sunitinib
Protocol: The in vitro tube formation assay was assessed using ibidi μ-Slides (15-well, ibidi GmbH, Martinsried, Germany) in accordance with manufacturer’s protocol. Briefly, growth factor reduced Matrigel (10 μl) (Sigma, St. Louis MO) was added to the inner well of ibidi μ-Slides, and incubated at 37 °C for 1 h. […] 10,000 HUVEC cells in 50 μl of above growth medium was added to Matrigel (Sigma, St. Louis MO, USA) coated ibidi μ-Slides. After 6 h of incubation at 37 °C, the supernatant was discarded, and 50 μl of serum-free medium with diluted calcein AM (6.25 μg/ml) was added to above ibidi μ-Slides. After incubation in the dark at room temperature for 30 min, the μ-Slides were washed with PBS (50 μl) and fluorescence pictures were taken at 485 nm with a Leica DM1000 LED microscope (Leica Microsystems, Wetzlar, Hessen, Germany).

Aurora A = molecular target: T1, Aurora A (Homo sapiens, UniProt O14965); experiment: In-vitro kinase assay (HotSpot, 33P), Aurora A; details: ATP 10.0 μM; for % inhibition of Aurora A at 1.0 μM: 1.0 μM compound; for inhibition at 1 µM: read-out: % inhibition of Aurora A at 1.0 μM, 1.0 μM compound
T1 sequence (O14965 1-403): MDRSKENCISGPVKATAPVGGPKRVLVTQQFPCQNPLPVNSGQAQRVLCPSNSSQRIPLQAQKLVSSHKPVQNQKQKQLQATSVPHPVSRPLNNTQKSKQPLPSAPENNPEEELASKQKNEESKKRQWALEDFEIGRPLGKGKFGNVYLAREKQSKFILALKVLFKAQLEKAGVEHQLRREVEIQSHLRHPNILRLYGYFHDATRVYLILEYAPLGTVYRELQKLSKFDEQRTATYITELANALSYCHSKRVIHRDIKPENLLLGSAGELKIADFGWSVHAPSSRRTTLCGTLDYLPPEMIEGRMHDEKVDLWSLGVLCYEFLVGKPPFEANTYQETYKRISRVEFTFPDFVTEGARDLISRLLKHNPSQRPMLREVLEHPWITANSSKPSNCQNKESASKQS
Protocol: as §3

PDGFRβ = PDGFRβ (Homo sapiens, UniProt P09619); experiment: In-vitro kinase assay (HotSpot, 33P), PDGFRβ
Chain of PDGFRβ (P09619 33-1106): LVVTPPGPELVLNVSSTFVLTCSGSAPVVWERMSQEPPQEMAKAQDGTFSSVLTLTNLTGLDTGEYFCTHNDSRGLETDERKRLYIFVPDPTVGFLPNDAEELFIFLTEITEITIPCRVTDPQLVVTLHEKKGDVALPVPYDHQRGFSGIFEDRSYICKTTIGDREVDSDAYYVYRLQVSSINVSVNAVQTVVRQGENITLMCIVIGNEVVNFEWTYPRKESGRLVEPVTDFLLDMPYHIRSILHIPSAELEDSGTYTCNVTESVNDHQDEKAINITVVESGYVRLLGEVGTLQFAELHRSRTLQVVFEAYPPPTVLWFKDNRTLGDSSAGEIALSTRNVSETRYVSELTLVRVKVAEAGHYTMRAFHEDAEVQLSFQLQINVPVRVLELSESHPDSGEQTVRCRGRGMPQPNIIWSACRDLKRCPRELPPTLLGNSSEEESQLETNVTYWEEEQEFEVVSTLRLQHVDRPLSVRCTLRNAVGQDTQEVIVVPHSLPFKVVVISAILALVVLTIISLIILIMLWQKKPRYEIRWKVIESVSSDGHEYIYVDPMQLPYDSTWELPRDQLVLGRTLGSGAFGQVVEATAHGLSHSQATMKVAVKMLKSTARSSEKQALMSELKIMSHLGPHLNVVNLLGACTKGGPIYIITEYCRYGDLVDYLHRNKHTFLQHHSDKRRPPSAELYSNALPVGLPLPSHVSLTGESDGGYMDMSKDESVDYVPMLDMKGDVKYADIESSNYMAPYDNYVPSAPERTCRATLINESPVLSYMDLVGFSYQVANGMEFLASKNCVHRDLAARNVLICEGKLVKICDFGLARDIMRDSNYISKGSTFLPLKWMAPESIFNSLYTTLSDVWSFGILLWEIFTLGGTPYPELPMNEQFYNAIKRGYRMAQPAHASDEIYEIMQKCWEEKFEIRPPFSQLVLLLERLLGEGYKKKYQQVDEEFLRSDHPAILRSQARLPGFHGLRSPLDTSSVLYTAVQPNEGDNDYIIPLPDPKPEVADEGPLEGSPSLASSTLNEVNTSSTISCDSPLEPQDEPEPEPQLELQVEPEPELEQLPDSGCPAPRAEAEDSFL

HCT116 cells [4] = test system: HCT116 cells
Protocol: (§1) Cells were seeded at 5000 cells/well on a 96-well plate for 24 h. The indicated compounds in different concentrations (100 μl) were added to cells. After 6 h, old medium was aspirated, and the cells were washed three times with PBS. WST-8 (Dojindo, Rockville, MD, USA) (10 µl) was added to each well, and the absorbance of the plate was recorded at 450 nm on a microplate spectrophotometer (Thermo Fisher Scientific, Waltham, MA, USA).

Detroit 551 cells [5] = test system: Detroit 551 cells
Protocol: as §1

| Compound | IC50 (HCT116 cells [1]) | IC50 (NCI-H460 cells) | melting point | IC50 (786-O cells) | inhibition at 0.08 µM (VEGFR-2) | selective index (SI) NCI-H460 (NCI-H460 cells) | IC50 (Detroit 551 cells [2]) | % inhibition of VEGFR-2 at 80 nM (VEGFR-2) | selective index (SI) HCT116 (HCT116 cells [1]) | other results |
| --- | --- | --- | --- | --- | --- | --- | --- | --- | --- | --- |
| CCN(CC)CCN1Cc2[nH]c(/C=C3\C(=O)Nc4ccc([N+](=O)[O-])cc43)c(C)c2C1=O [Compound 12, (Z)-3-((5-(2-(diethylamino)ethyl)-3-methyl-4-oxo-1,4,5,6-tetrahydropyrrolo[3,4-b]pyrrol-2-yl)methylene)-5-nitroindolin-2-one] | > 10 µM | 6.61 ± 0.8 µM | 229 to 230 °C | > 10 µM | 13% | >1.51 | > 10 µM | – | – | – |
| CCN(CC)CCN1Cc2[nH]c(/C=C3\C(=O)Nc4ccc(S(N)(=O)=O)cc43)c(C)c2C1=O [Compound 4, (Z)-3-((5-(2-(diethylamino)ethyl)-3-methyl-4-oxo-1,4,5,6-tetrahydropyrrolo[3,4-b]pyrrol-2-yl)methylene)-2-oxoindoline-5-sulfonamide] | > 10 µM | > 10 µM | 252 to 255 °C | > 10 µM | 0% | – | > 10 µM | did not differ from that of the 1% DMSO (control) | – | – |
| CCN(CC)CCN1Cc2[nH]c(/C=C3\C(=O)Nc4ccc(S(=O)(=O)Nc5ccc(C(F)(F)F)cc5)cc43)c(C)c2C1=O [Compound 9, (Z)-3-((5-(2-(Diethylamino)ethyl)-3-methyl-4-oxo-1,4,5,6-tetrahydropyrrolo[3,4-b]pyrrol-2-yl)methylene)-2-oxo-N-(4-(trifluoromethyl)phenyl)indoline-5-sulfonamide] | > 10 µM | > 10 µM | 231 to 234 °C | > 10 µM | 0% | – | > 10 µM | did not differ from that of the 1% DMSO (control) | – | – |
| CCN(CC)CCN1Cc2[nH]c(/C=C3\C(=O)Nc4ccc(S(=O)(=O)N(CCCl)CCCl)cc43)c(C)c2C1=O [Compound 7, (Z)-N,N-Bis(2-chloroethyl)-3-((5-(2-(diethylamino)ethyl)-3-methyl-4-oxo-1,4,5,6-tetrahydropyrrolo[3,4-b]pyrrol-2-yl)methylene)-2-oxoindoline-5-sulfonamide] | 3.65 ± 0.19 µM | > 10 µM | – | > 10 µM | 46% | <0.61 | 6.06 ± 0.4 µM | – | 1.66 | cell cycle profile effect (HCT116 cells [3]; 5.0 μM): increase in polyploid cells; IC50 (HUVEC cells): 0.76 ± 0.11 µM; potency in inhibiting in vitro tube formation relative to sunitinib in terms of IC50 (HUVEC cells): twofold higher; % inhibition of Aurora A at 1.0 μM (Aurora A): 94.4%; inhibition at 1 µM (Aurora A): 92.9%; selective index (SI) 786-O (786-O cells): <0.61; IC50 (VEGFR-2): 0.0237 µM; IC50 (PDGFRβ): 0.0632 µM; acute cytotoxicity, HCT116 (HCT116 cells [4]; 10 μM, 6 h, WST-8): neither our compounds nor sunitinib had acute cytotoxicity; acute cytotoxicity, Detroit 551 (Detroit 551 cells [5]; 10 μM, 6 h, WST-8): neither our compounds nor sunitinib had acute cytotoxicity |
| CCN(CC)CCN1Cc2[nH]c(/C=C3\C(=O)Nc4ccc(C(F)(F)F)cc43)c(C)c2C1=O [Compound 11, (Z)-3-((5-(2-(Diethylamino)ethyl)-3-methyl-4-oxo-1,4,5,6-tetrahydropyrrolo[3,4-b]pyrrol-2-yl)methylene)-5-(trifluoromethyl)indolin-2-one] | > 10 µM | 7.22 ± 1.01 µM | 212 to 215 °C | 8.49 ± 0.46 µM | 0% | >1.39 | > 10 µM | did not differ from that of the 1% DMSO (control); also recorded: no inhibitory activity | – | selective index (SI) 786-O (786-O cells): >1.18 |
| CCN(CC)CCN1Cc2[nH]c(/C=C3\C(=O)Nc4ccc(S(=O)(=O)Nc5ccccc5)cc43)c(C)c2C1=O [Compound 8, (Z)-3-((5-(2-(Diethylamino)ethyl)-3-methyl-4-oxo-1,4,5,6-tetrahydropyrrolo[3,4-b]pyrrol-2-yl)methylene)-2-oxo-N-phenylindoline-5-sulfonamide] | > 10 µM | > 10 µM | 225 to 228 °C | > 10 µM | 15% | – | > 10 µM | did not differ from that of the 1% DMSO (control) | – | – |
| CCN(CC)CCN1Cc2[nH]c(/C=C3\C(=O)Nc4ccc(NS(C)(=O)=O)cc43)c(C)c2C1=O [Compound 10, (Z)-N-(3-((5-(2-(Diethylamino)ethyl)-3-methyl-4-oxo-1,4,5,6-tetrahydropyrrolo[3,4-b]pyrrol-2-yl)methylene)-2-oxoindolin-5-yl)methanesulfonamide] | > 10 µM | > 10 µM | 245 to 247 °C | > 10 µM | 4% | – | > 10 µM | – | – | – |

More lines, in order of falling IC50 (HCT116 cells [1]), values ahead:

| IC50 (HCT116 cells [1]) | IC50 (NCI-H460 cells) | melting point | IC50 (786-O cells) | inhibition at 0.08 µM (VEGFR-2) | Compound | selective index (SI) NCI-H460 (NCI-H460 cells) | IC50 (Detroit 551 cells [2]) | % inhibition of VEGFR-2 at 80 nM (VEGFR-2) | selective index (SI) HCT116 (HCT116 cells [1]) | other results |
| --- | --- | --- | --- | --- | --- | --- | --- | --- | --- | --- |
| 8.98 ± 0.92 µM | > 10 µM | 244 to 247 °C | > 10 µM | 20% | CCN(CC)CCN1Cc2[nH]c(/C=C3\C(=O)Nc4ccc(S(=O)(=O)N(C)C)cc43)c(C)c2C1=O [Compound 5, (Z)-3-((5-(2-(diethylamino)ethyl)-3-methyl-4-oxo-1,4,5,6-tetrahydropyrrolo[3,4-b]pyrrol-2-yl)methylene)-N,N-dimethyl-2-oxoindoline-5-sulfonamide] | – | > 10 µM | – | >1.11 | – |
| 4.6 ± 0.23 µM | 7.51 ± 0.78 µM | – | 7.89 ± 0.6 µM | – | CCN(CC)CCNC(=O)c1c(C)[nH]c(/C=C2\C(=O)Nc3ccc(F)cc32)c1C [Sunitinib, sunitinib, reference compound] | – | 9.48 ± 0.18 µM | – | – | cell cycle profile effect (HCT116 cells [3]; 5.0 μM): G0/G1 cell cycle arrest; IC50 (HUVEC cells): 1.54 ± 0.08 µM; inhibition at 1 µM (Aurora A): 50.7%; acute cytotoxicity, HCT116 (HCT116 cells [4]): neither our compounds nor sunitinib had acute cytotoxicity; acute cytotoxicity, Detroit 551 (Detroit 551 cells [5]): neither our compounds nor sunitinib had acute cytotoxicity |
| 4.2 ± 0.57 µM | > 10 µM | 245 to 247 °C | > 10 µM | 0% | CCN(CC)CCN1Cc2[nH]c(/C=C3\C(=O)Nc4ccc(S(=O)(=O)N(CC)CC)cc43)c(C)c2C1=O [Compound 6, (Z)-3-((5-(2-(diethylamino)ethyl)-3-methyl-4-oxo-1,4,5,6-tetrahydropyrrolo[3,4-b]pyrrol-2-yl)methylene)-N,N-diethyl-2-oxoindoline-5-sulfonamide] | – | > 10 µM | – | >2.38 | – |
| 3.06 ± 0.67 µM | 6.37 ± 1.09 µM | 214 to 216 °C | 7.86 ± 0.3 µM | 41% | CCN(CC)CCN1Cc2[nH]c(/C=C3\C(=O)Nc4ccc(OC)cc43)c(C)c2C1=O [Compound 13, (Z)-3-((5-(2-(diethylamino)ethyl)-3-methyl-4-oxo-1,4,5,6-tetrahydropyrrolo[3,4-b]pyrrol-2-yl)methylene)-5-methoxyindolin-2-one] | >1.57 | > 10 µM | – | >3.27 | cell cycle profile effect (HCT116 cells [3]; 3.0 μM): increase in polyploid cells; IC50 (HUVEC cells): 0.74 ± 0.16 µM; potency in inhibiting in vitro tube formation relative to sunitinib in terms of IC50 (HUVEC cells): twofold higher; % inhibition of Aurora A at 1.0 μM (Aurora A): 92.9%; inhibition at 1 µM (Aurora A): 94.4%; selective index (SI) 786-O (786-O cells): >1.27; IC50 (VEGFR-2): 0.0478 µM; IC50 (PDGFRβ): 0.0762 µM |
